The values that follow come from patent EP1054888B1 (priority 1998, dated 1999).

Converted amounts (≈) assume the structure as drawn. Some results are limits rather than exact numbers.

One experiment relates to Mycosphaerella ligulicola. Nature of the experiment: microbe, parasite or virus in culture. Type of experiment: cell-based. The conditions noted are these: Stagonosporopsis ligulicola, read-out: MIC (Minimum Inhibitory Concentration) MYCOLG.
Take `Fc1cccc(Cl)c1-c1c(Cl)nc2ncnn2c1C1CCCO1` (stereo not shown) [Example 11]: the MIC came out at 12.5 µg/mL (≈ 35.4 µM).

On to `FC(F)(F)Oc1ccccc1-c1c(Cl)nc2ncnn2c1C1CCCO1` (stereo not shown) [Example 16], for which the MIC was more than 100 µg/mL.

In the case of `CCCCc1c(-c2c(F)cccc2Cl)c(Cl)nc2ncnn12` [Example 17], the MIC amounted to 0.78 µg/mL (≈ 2.3 µM).

As to `CCCCCc1c(-c2c(F)cccc2Cl)c(Cl)nc2ncnn12` [Example 18], the MIC amounted to 0.78 µg/mL (≈ 2.21 µM).

Another experiment deals with Alternaria solani. Kind of experiment: microbe, parasite or virus in culture. The note with it: read-out: MIC (Minimum Inhibitory Concentration) ALTESO. The experiment is classed as cell-based.
For the molecule `CCc1c(-c2c(F)cccc2Cl)c(Cl)nc2ncnn12` [Example 24], the MIC came to 12.5 µg/mL (≈ 40.2 µM).

For `CCCc1c(-c2c(F)cccc2Cl)c(Cl)nc2ncnn12` [Example 25], the MIC was determined as 1.56 µg/mL (≈ 4.8 µM).

In the case of `CC(C)Cc1c(-c2c(F)cccc2Cl)c(Cl)nc2ncnn12` [Example 26], the MIC worked out at 0.78 µg/mL (≈ 2.3 µM).

Regarding `CC(C)c1c(-c2c(F)cccc2Cl)c(Cl)nc2ncnn12` [Example 27], the MIC is more than 100 µg/mL.

For the molecule `CCC(C)c1c(-c2c(F)cccc2Cl)c(Cl)nc2ncnn12` (stereo not shown) [Example 28], the MIC was 6.25 µg/mL (≈ 18.4 µM).

Consider `Fc1cccc(Cl)c1-c1c(Cl)nc2ncnn2c1C1CCCC1` [Example 29], for which the MIC worked out at 0.78 µg/mL (≈ 2.22 µM).

With `Fc1cccc(Cl)c1-c1c(Cl)nc2ncnn2c1C1CCCCC1` [Example 30], the MIC was less than 0.05 µg/mL.

For `Fc1cccc(Cl)c1-c1c(Cl)nc2ncnn2c1CCC(F)(F)F` [Example 32], the MIC worked out at 3.13 µg/mL (≈ 8.26 µM).

For another experiment, the system named is Rhizoctonia solani. Nature of the experiment: microbe, parasite or virus in culture. Type of experiment: cell-based. The conditions noted are these: read-out: MIC (Minimum Inhibitory Concentration) RHIZSO.
Take `CCc1c(-c2c(F)cccc2Cl)c(Cl)nc2ncnn12` [Example 24]: the MIC is 6.25 µg/mL (≈ 20.1 µM).

Consider `CCCc1c(-c2c(F)cccc2Cl)c(Cl)nc2ncnn12` [Example 25], for which the MIC was found to be 1.56 µg/mL (≈ 4.8 µM).

Regarding `CC(C)Cc1c(-c2c(F)cccc2Cl)c(Cl)nc2ncnn12` [Example 26], the MIC amounted to 0.78 µg/mL (≈ 2.3 µM).

For the molecule `CC(C)c1c(-c2c(F)cccc2Cl)c(Cl)nc2ncnn12` [Example 27], the MIC is 0.39 µg/mL (≈ 1.2 µM).

As to `CCC(C)c1c(-c2c(F)cccc2Cl)c(Cl)nc2ncnn12` (stereo not shown) [Example 28], the MIC worked out at 0.78 µg/mL (≈ 2.3 µM).

As for `Fc1cccc(Cl)c1-c1c(Cl)nc2ncnn2c1C1CCCC1` [Example 29], the MIC is 0.78 µg/mL (≈ 2.22 µM).

With `Fc1cccc(Cl)c1-c1c(Cl)nc2ncnn2c1C1CCCCC1` [Example 30], the MIC is more than 100 µg/mL.

Consider `Fc1cccc(Cl)c1-c1c(Cl)nc2ncnn2c1CCC(F)(F)F` [Example 32], for which the MIC is 6.25 µg/mL (≈ 16.5 µM).

The next experiment concerns Sclerotinia sclerotiorum. Kind of experiment: microbe, parasite or virus in culture. The experiment is classed as cell-based. The note with it: read-out: MIC (Minimum Inhibitory Concentration) SCLESC.
For `Fc1cccc(Cl)c1-c1c(Cl)nc2ncnn2c1C1CCCO1` (stereo not shown) [Example 11], the MIC was found to be 25 µg/mL (≈ 70.8 µM).

On to `FC(F)(F)Oc1ccccc1-c1c(Cl)nc2ncnn2c1C1CCCO1` (stereo not shown) [Example 16], for which the MIC was more than 100 µg/mL.

For `CCCCc1c(-c2c(F)cccc2Cl)c(Cl)nc2ncnn12` [Example 17], the MIC worked out at 0.78 µg/mL (≈ 2.3 µM).

Consider `CCCCCc1c(-c2c(F)cccc2Cl)c(Cl)nc2ncnn12` [Example 18], for which the MIC was determined as 0.78 µg/mL (≈ 2.21 µM).

For a further experiment, the system named is Leptosphaeria nodorum. Kind of experiment: microbe, parasite or virus in culture. Type of experiment: cell-based. The conditions noted are these: Parastagonospora nodorum, read-out: MIC (Minimum Inhibitory Concentration) LEPTNO.
Consider `Fc1cccc(Cl)c1-c1c(Cl)nc2ncnn2c1C1CCCO1` (stereo not shown) [Example 11], for which the MIC came to 1.56 µg/mL (≈ 4.42 µM).

Turning to `FC(F)(F)Oc1ccccc1-c1c(Cl)nc2ncnn2c1C1CCCO1` (stereo not shown) [Example 16], the MIC is more than 100 µg/mL.

As for `CCCCc1c(-c2c(F)cccc2Cl)c(Cl)nc2ncnn12` [Example 17], the MIC came to 0.78 µg/mL (≈ 2.3 µM).

For `CCCCCc1c(-c2c(F)cccc2Cl)c(Cl)nc2ncnn12` [Example 18], the MIC was 1.56 µg/mL (≈ 4.42 µM).

For `CCc1c(-c2c(F)cccc2Cl)c(Cl)nc2ncnn12` [Example 24], the MIC was found to be 3.13 µg/mL (≈ 10.1 µM).

In the case of `CCCc1c(-c2c(F)cccc2Cl)c(Cl)nc2ncnn12` [Example 25], the MIC was more than 100 µg/mL.

On to `CC(C)Cc1c(-c2c(F)cccc2Cl)c(Cl)nc2ncnn12` [Example 26], for which the MIC turned out to be 0.39 µg/mL (≈ 1.15 µM).

Consider `CC(C)c1c(-c2c(F)cccc2Cl)c(Cl)nc2ncnn12` [Example 27], for which the MIC worked out at 1.56 µg/mL (≈ 4.8 µM).

Consider `CCC(C)c1c(-c2c(F)cccc2Cl)c(Cl)nc2ncnn12` (stereo not shown) [Example 28], for which the MIC was more than 100 µg/mL.

On to `Fc1cccc(Cl)c1-c1c(Cl)nc2ncnn2c1C1CCCC1` [Example 29], for which the MIC amounted to 0.39 µg/mL (≈ 1.11 µM).

As to `Fc1cccc(Cl)c1-c1c(Cl)nc2ncnn2c1C1CCCCC1` [Example 30], the MIC came to 25 µg/mL (≈ 68.4 µM).

In the case of `Fc1cccc(Cl)c1-c1c(Cl)nc2ncnn2c1CCC(F)(F)F` [Example 32], the MIC is more than 100 µg/mL.

Another experiment concerns Phytophthora infestans. Nature of the experiment: microbe, parasite or virus in culture. The experiment is classed as cell-based. The conditions noted are these: read-out: MIC (Minimum Inhibitory Concentration) PHYTIN.
As for `CCc1c(-c2c(F)cccc2Cl)c(Cl)nc2ncnn12` [Example 24], the MIC is more than 100 µg/mL.

`CCCc1c(-c2c(F)cccc2Cl)c(Cl)nc2ncnn12` [Example 25]: the MIC turned out to be 12.5 µg/mL (≈ 38.4 µM).

As for `CC(C)Cc1c(-c2c(F)cccc2Cl)c(Cl)nc2ncnn12` [Example 26], the MIC was more than 100 µg/mL.

As for `CC(C)c1c(-c2c(F)cccc2Cl)c(Cl)nc2ncnn12` [Example 27], the MIC is more than 100 µg/mL.

Consider `CCC(C)c1c(-c2c(F)cccc2Cl)c(Cl)nc2ncnn12` (stereo not shown) [Example 28], for which the MIC is more than 100 µg/mL.

`Fc1cccc(Cl)c1-c1c(Cl)nc2ncnn2c1C1CCCC1` [Example 29]: the MIC was more than 100 µg/mL.

Consider `Fc1cccc(Cl)c1-c1c(Cl)nc2ncnn2c1C1CCCCC1` [Example 30], for which the MIC was more than 100 µg/mL.

Turning to `Fc1cccc(Cl)c1-c1c(Cl)nc2ncnn2c1CCC(F)(F)F` [Example 32], the MIC was 50 µg/mL (≈ 132 µM).

The next experiment has as its system Pyrenophora teres. Nature of the experiment: microbe, parasite or virus in culture. The note with it: read-out: MIC (Minimum Inhibitory Concentration) PYRNTE. Type of experiment: cell-based.
Take `CCc1c(-c2c(F)cccc2Cl)c(Cl)nc2ncnn12` [Example 24]: the MIC is more than 100 µg/mL.

Regarding `CCCc1c(-c2c(F)cccc2Cl)c(Cl)nc2ncnn12` [Example 25], the MIC was 3.13 µg/mL (≈ 9.63 µM).

In the case of `CC(C)Cc1c(-c2c(F)cccc2Cl)c(Cl)nc2ncnn12` [Example 26], the MIC was 3.13 µg/mL (≈ 9.23 µM).

`CC(C)c1c(-c2c(F)cccc2Cl)c(Cl)nc2ncnn12` [Example 27]: the MIC is more than 100 µg/mL.

With `CCC(C)c1c(-c2c(F)cccc2Cl)c(Cl)nc2ncnn12` (stereo not shown) [Example 28], the MIC worked out at 6.25 µg/mL (≈ 18.4 µM).

As to `Fc1cccc(Cl)c1-c1c(Cl)nc2ncnn2c1C1CCCC1` [Example 29], the MIC came to 0.78 µg/mL (≈ 2.22 µM).

On to `Fc1cccc(Cl)c1-c1c(Cl)nc2ncnn2c1C1CCCCC1` [Example 30], for which the MIC came out at 0.2 µg/mL (≈ 0.548 µM).

Regarding `Fc1cccc(Cl)c1-c1c(Cl)nc2ncnn2c1CCC(F)(F)F` [Example 32], the MIC worked out at 12.5 µg/mL (≈ 33 µM).

Another experiment deals with Monilina fructigena. Nature of the experiment: microbe, parasite or virus in culture. Type of experiment: cell-based. The note with it: read-out: MIC (Minimum Inhibitory Concentration) MONIFG.
Turning to `Fc1cccc(Cl)c1-c1c(Cl)nc2ncnn2c1C1CCCO1` (stereo not shown) [Example 11], the MIC was found to be 3.13 µg/mL (≈ 8.86 µM).

On to `FC(F)(F)Oc1ccccc1-c1c(Cl)nc2ncnn2c1C1CCCO1` (stereo not shown) [Example 16], for which the MIC was more than 100 µg/mL.

On to `CCCCc1c(-c2c(F)cccc2Cl)c(Cl)nc2ncnn12` [Example 17], for which the MIC worked out at 3.13 µg/mL (≈ 9.23 µM).

`CCCCCc1c(-c2c(F)cccc2Cl)c(Cl)nc2ncnn12` [Example 18]: the MIC amounted to 3.13 µg/mL (≈ 8.86 µM).

The next experiment relates to Magnaporthe grisea f. sp. oryzae. Kind of experiment: microbe, parasite or virus in culture. The experiment is classed as cell-based. The note with it: Pyricularia oryzae, read-out: MIC (Minimum Inhibitory Concentration) PYRIOR, Table II; total inhibition of mycelial growth, V8 juice nutrient solution, 6-12 days at 18-25°C, visual inspection.
On to `CCc1c(-c2c(F)cccc2Cl)c(Cl)nc2ncnn12` [Example 24], for which the MIC was less than 0.05 µg/mL.

Turning to `CCCc1c(-c2c(F)cccc2Cl)c(Cl)nc2ncnn12` [Example 25], the MIC was 0.1 µg/mL (≈ 0.308 µM).

Take `CC(C)Cc1c(-c2c(F)cccc2Cl)c(Cl)nc2ncnn12` [Example 26]: the MIC was less than 0.05 µg/mL.

Consider `CC(C)c1c(-c2c(F)cccc2Cl)c(Cl)nc2ncnn12` [Example 27], for which the MIC stood at 0.2 µg/mL (≈ 0.615 µM).

Turning to `CCC(C)c1c(-c2c(F)cccc2Cl)c(Cl)nc2ncnn12` (stereo not shown) [Example 28], the MIC is 1.56 µg/mL (≈ 4.6 µM).

Turning to `Fc1cccc(Cl)c1-c1c(Cl)nc2ncnn2c1C1CCCC1` [Example 29], the MIC is less than 0.05 µg/mL.

For `Fc1cccc(Cl)c1-c1c(Cl)nc2ncnn2c1C1CCCCC1` [Example 30], the MIC was less than 0.05 µg/mL.

For the molecule `Fc1cccc(Cl)c1-c1c(Cl)nc2ncnn2c1CCC(F)(F)F` [Example 32], the MIC stood at 0.2 µg/mL (≈ 0.528 µM).

The test system of a further experiment is Botrytis cinerea. Kind of experiment: microbe, parasite or virus in culture. The experiment is classed as cell-based. The conditions noted are these: read-out: MIC (Minimum Inhibitory Concentration) BOTRCI.
As to `Fc1cccc(Cl)c1-c1c(Cl)nc2ncnn2c1C1CCCO1` (stereo not shown) [Example 11], the MIC is 1.56 µg/mL (≈ 4.42 µM).

For `FC(F)(F)Oc1ccccc1-c1c(Cl)nc2ncnn2c1C1CCCO1` (stereo not shown) [Example 16], the MIC came to 25 µg/mL (≈ 65 µM).

On to `CCCCc1c(-c2c(F)cccc2Cl)c(Cl)nc2ncnn12` [Example 17], for which the MIC came out at 0.2 µg/mL (≈ 0.59 µM).

`CCCCCc1c(-c2c(F)cccc2Cl)c(Cl)nc2ncnn12` [Example 18]: the MIC was 0.2 µg/mL (≈ 0.566 µM).

Turning to `CCc1c(-c2c(F)cccc2Cl)c(Cl)nc2ncnn12` [Example 24], the MIC is 6.25 µg/mL (≈ 20.1 µM).

Turning to `CCCc1c(-c2c(F)cccc2Cl)c(Cl)nc2ncnn12` [Example 25], the MIC stood at 0.78 µg/mL (≈ 2.4 µM).

Turning to `CC(C)Cc1c(-c2c(F)cccc2Cl)c(Cl)nc2ncnn12` [Example 26], the MIC is 0.2 µg/mL (≈ 0.59 µM).

For `CC(C)c1c(-c2c(F)cccc2Cl)c(Cl)nc2ncnn12` [Example 27], the MIC is 0.78 µg/mL (≈ 2.4 µM).

Take `CCC(C)c1c(-c2c(F)cccc2Cl)c(Cl)nc2ncnn12` (stereo not shown) [Example 28]: the MIC came to 3.13 µg/mL (≈ 9.23 µM).

As to `Fc1cccc(Cl)c1-c1c(Cl)nc2ncnn2c1C1CCCC1` [Example 29], the MIC amounted to 1.56 µg/mL (≈ 4.44 µM).

Consider `Fc1cccc(Cl)c1-c1c(Cl)nc2ncnn2c1C1CCCCC1` [Example 30], for which the MIC is less than 0.05 µg/mL.

As to `Fc1cccc(Cl)c1-c1c(Cl)nc2ncnn2c1CCC(F)(F)F` [Example 32], the MIC came out at 0.78 µg/mL (≈ 2.06 µM).
